Data on twelve compounds can be found in US5972953A, “Brain cell protective agent” (priority 1993, dated 1999).

The test system of this experiment is cultured nerve cells (cerebral cortex). As to the kind of experiment: cells. Format: cell-based, Wistar rat. Conditions: Rattus norvegicus, Cerebral cortex neuron; 10 mM glutamate, 24 hours at 37° C., LDH leakage; read-out: ED50 (the source's name). On the technique in general: Release of lactate dehydrogenase indicates damage to the cell membrane.

Each structure is given as a SMILES string. pEC50: −log10 of the molar value.

For `CCC/C=C/C(=O)N(C)[C@@H]1CC[C@@]2(O)[C@H]3Cc4ccc(O)c5c4[C@@]2(CCN3CC2CC2)[C@H]1O5` [Compound 75, 17-cyclopropylmethyl-3,14β-dihydroxy-4,5α-epoxy-6β-(N-methyl-trans-2-hexenoamido)morphinan], the pEC50 is 4.78.
For `CC(C)CN(CCCCCCc1ccccc1)[C@@H]1CC[C@@]2(O)[C@H]3Cc4ccc(O)c5c4[C@@]2(CCN3CC2CC2)[C@H]1O5` [Compound 98, 17-cyclopropylmethyl-3,14β-dihydroxy-4,5α-epoxy-6β-(N-isobutyl-6-phenylhexylamino)morphinan], the pEC50 was 6.80.
As to `CN(C(=O)/C=C/c1ccco1)[C@@H]1CC[C@@]2(O)[C@H]3Cc4ccc(O)c5c4[C@@]2(CCN3CC2CC2)[C@H]1O5` (relative stereo) [Compound 53, 17-cyclopropylmethyl-3,14β-dihydroxy-4,5α-epoxy-6β-[N-methyl-trans-3-(2-furyl)acrylamido]morphinan], the pEC50 is 4.74.
The result for `CCCCCC(=O)N(C)[C@@H]1CC[C@@]2(O)[C@H]3Cc4ccc(O)c5c4[C@@]2(CCN3CC2CC2)[C@H]1O5` [Compound 49, 17-cyclopropylmethyl-3,14β-dihydroxy-4,5α-epoxy-6β-(N-methylhexanoamido)morphinan] reads 4.52.
For `CN(C(=O)/C=C/c1cccc(N=C=S)c1)[C@@H]1CC[C@@]2(O)[C@H]3Cc4ccc(O)c5c4[C@@]2(CCN3CC2CC2)[C@H]1O5` [Compound 117, 17-cyclopropylmethyl-3,14β-dihydroxy-4,5α-epoxy-6β-(N-methyl-3-isothiocyanatocinnamamido)morphinan] the value was 5.02.
For `CN(C(=O)/C=C/c1ccoc1)[C@@H]1CC[C@@]2(O)[C@H]3Cc4ccc(O)c5c4[C@@]2(CCN3CC2CC2)[C@H]1O5` (relative stereo) [Compound 43, 17-cyclopropylmethyl-3,14β-dihydroxy-4,5α-epoxy-6β-[N-methyl-trans-3-(3-furyl)acrylamido]morphinan] the value was 4.49.
In the case of `CN(C(=O)Cc1csc2ccccc12)[C@@H]1CC[C@@]2(O)[C@H]3Cc4ccc(O)c5c4[C@@]2(CCN3CC2CC2)[C@H]1O5` [Compound 87, 17-cyclopropylmethyl-3,14β-dihydroxy-4,5α-epoxy-6β-(N-methyl-3-benzo[b]thienylacetoamrido)morphinan], the pEC50 was 5.67.
Take `CN(C(=O)Cc1c(F)c(F)c(F)c(F)c1F)[C@@H]1CC[C@@]2(O)[C@H]3Cc4ccc(O)c5c4[C@@]2(CCN3CC2CC2)[C@H]1O5` [Compound 89, 17-cyclopropylmethyl-3,14β-dihydroxy-4,5α-epoxy-6β-(N-methyl-2,3,4,5,6-pentafluorophenylacetoamido)morphinan]: the pEC50 is 5.20.
On to `CC(C)N(C(=O)/C=C/c1cccc(C(F)(F)F)c1)[C@@H]1CC[C@@]2(O)[C@H]3Cc4ccc(O)c5c4[C@@]2(CCN3CC2CC2)[C@H]1O5` [Compound 64, 17-cyclopropylmethyl-3,14β-dihydroxy-4,5α-epoxy-6β-(N-isopropyl-3-trifluoromethylcinnamamido)morphinan], for which the pEC50 is 6.16.
For `Oc1ccc2c3c1O[C@H]1[C@H](N(Cc4ccccc4)CC(c4ccccc4)c4ccccc4)CC[C@@]4(O)[C@@H](C2)N(CC2CC2)CC[C@]314` [Compound 14, 17-cyclopropylmethyl-3,14β-dihydroxy-4,5α-epoxy-6β-[N-(2,2-diphenylethyl)benzylamino)morphinan] the value was 6.96; for `CN(C(=O)OCc1ccccc1)[C@H]1CC[C@@]2(O)[C@H]3Cc4ccc(O)c5c4[C@@]2(CCN3CC2CC2)[C@H]1O5` [Compound 99, 17-cyclopropylmethyl-3,14β-dihydroxy-4,5α-epoxy-6α-(N-methylbenzyloxycarbamido)morphinan], 6.40.
Turning to `CN(C(=O)NCc1ccccc1)[C@H]1CC[C@@]2(O)[C@H]3Cc4ccc(O)c5c4[C@@]2(CCN3CC2CC2)[C@H]1O5` [Compound 104, 17-Cyclopropylmethyl-3,14β-dihydroxy-4,5α-epoxy-6α-(N-methyl-N'-benzylureido)morphinan], the pEC50 was 6.24.
